Assay results: article PMC10861852, “Loss of activation by GABA in vertebrate delta ionotropic glutamate receptors” (Proceedings of the National Academy of Sciences of the …, 2024)

Experiments:
[1] = target: T1, RatGluD2^Lc^-10x (Rattus norvegicus, UniProt Q63226, A654T/A686S/D753Q/K694R/N720P/N763K/P806D/Q786M/R787V/S544G/Y613F); experiment: Two-electrode voltage clamp, responses to ligands in mutant-expressing oocytes; format: cell-based; conditions: ligands 30 mM
T1 construct: expressed in transfected cells; host or cells: Xenopus laevis oocytes injected with mRNA
T1 sequence (Q63226 24-1007 S544G/Y613F/A654T/A686S/K694R/N720P/D753Q/N763K/Q786M/R787V/P806D): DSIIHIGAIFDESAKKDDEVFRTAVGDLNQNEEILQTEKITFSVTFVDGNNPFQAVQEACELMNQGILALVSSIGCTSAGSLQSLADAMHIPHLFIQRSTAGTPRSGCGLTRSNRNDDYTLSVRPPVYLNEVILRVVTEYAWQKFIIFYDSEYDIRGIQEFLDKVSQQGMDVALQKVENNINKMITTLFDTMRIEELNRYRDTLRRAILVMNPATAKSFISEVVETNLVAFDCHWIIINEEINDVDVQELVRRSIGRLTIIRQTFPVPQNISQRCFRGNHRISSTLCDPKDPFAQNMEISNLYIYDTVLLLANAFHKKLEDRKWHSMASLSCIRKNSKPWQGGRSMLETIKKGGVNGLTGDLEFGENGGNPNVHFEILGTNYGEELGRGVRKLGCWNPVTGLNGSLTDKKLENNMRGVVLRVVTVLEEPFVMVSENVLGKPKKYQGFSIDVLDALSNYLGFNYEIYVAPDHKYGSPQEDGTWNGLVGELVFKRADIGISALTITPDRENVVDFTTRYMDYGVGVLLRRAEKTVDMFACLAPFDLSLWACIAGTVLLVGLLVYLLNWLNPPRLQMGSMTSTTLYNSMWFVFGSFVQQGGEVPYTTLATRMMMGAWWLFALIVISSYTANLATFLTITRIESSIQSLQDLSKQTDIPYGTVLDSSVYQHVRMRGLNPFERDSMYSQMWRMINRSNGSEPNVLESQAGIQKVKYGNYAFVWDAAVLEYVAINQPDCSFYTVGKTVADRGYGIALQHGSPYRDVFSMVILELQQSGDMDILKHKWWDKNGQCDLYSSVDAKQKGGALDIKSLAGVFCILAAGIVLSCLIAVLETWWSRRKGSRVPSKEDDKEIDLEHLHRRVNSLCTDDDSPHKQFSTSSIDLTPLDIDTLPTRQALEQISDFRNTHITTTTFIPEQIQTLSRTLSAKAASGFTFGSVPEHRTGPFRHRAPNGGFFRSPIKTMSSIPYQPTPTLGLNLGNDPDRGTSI

[2] = test system: AcaGluD^Rat^NTD; experiment: Two-electrode voltage clamp, ligand-gated currents in chimera-expressing oocytes; conditions: relative ligand-gated current amplitude, n = 3
Excerpt: (§1) To answer this, we measured ligand-gated currents in two chimeric AcaGluD constructs in which the NTD was replaced with that of RatGluD2: one retaining the NTD-LBD linker of AcaGluD, “AcaGluD^Rat^NTD”; and the other with the NTD-LBD linker of RatGluD2, “AcaGluD^Rat^NTDlink” (Fig. 4 A and B and SI Appendix, Supporting text).

[3] = target: T2, AcaGluD (Acanthaster planci, UniProt A0A8B7XXR5); experiment: Two-electrode voltage clamp, ligand-gated currents in oocytes; format: cell-based
T2 sequence (A0A8B7XXR5 24-958): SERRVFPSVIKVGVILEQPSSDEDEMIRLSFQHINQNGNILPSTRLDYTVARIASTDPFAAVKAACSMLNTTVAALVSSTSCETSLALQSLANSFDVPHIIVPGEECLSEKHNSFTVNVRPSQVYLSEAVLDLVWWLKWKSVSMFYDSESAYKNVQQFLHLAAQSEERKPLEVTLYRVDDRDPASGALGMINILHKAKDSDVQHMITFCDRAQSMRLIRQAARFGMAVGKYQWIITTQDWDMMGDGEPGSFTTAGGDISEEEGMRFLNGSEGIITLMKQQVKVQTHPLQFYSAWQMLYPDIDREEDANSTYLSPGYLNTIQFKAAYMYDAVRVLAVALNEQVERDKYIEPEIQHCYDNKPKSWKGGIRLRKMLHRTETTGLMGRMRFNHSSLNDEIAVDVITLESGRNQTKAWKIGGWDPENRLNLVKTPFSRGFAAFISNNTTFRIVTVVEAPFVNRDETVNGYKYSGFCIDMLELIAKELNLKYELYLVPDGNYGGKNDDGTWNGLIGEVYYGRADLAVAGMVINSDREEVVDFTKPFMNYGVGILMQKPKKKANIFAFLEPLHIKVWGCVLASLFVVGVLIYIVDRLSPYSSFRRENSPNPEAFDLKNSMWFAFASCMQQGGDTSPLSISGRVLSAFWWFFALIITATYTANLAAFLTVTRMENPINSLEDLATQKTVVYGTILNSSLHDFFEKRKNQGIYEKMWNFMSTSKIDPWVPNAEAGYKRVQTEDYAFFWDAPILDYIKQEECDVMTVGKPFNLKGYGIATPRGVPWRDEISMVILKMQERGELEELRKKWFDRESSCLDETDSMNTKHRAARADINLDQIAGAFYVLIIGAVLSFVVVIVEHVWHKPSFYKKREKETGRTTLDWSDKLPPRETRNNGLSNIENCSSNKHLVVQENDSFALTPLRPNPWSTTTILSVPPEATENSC

[4] = test system: AcaGluD^Rat^NTDlink; experiment: Two-electrode voltage clamp, ligand-gated currents in chimera-expressing oocytes; conditions: relative ligand-gated current amplitude, n = 3
Excerpt: as §1

[5] = test system: Q772D mutant AcaGluD; experiment: Two-electrode voltage clamp, ligand-gated currents in mutant-expressing oocytes
Excerpt: (§2) As the long CTD is implicated little in channel gating and more in expression and trafficking of iGluRs ([3]), we excluded it from this analysis. […] (Two of the mutants incorporated substitutions of two adjacent residues for efficiency.)

[6] = target: T3, RatGluD1^AC (Rattus norvegicus, UniProt Q62640, A654C); experiment: Two-electrode voltage clamp, inhibition of constitutive current in oocytes; format: cell-based; conditions: A654C mutant receptor, n = 10
T3 construct: expressed in transfected cells; host or cells: Xenopus laevis oocytes injected with mRNA
T3 sequence (Q62640 21-1009 A654C): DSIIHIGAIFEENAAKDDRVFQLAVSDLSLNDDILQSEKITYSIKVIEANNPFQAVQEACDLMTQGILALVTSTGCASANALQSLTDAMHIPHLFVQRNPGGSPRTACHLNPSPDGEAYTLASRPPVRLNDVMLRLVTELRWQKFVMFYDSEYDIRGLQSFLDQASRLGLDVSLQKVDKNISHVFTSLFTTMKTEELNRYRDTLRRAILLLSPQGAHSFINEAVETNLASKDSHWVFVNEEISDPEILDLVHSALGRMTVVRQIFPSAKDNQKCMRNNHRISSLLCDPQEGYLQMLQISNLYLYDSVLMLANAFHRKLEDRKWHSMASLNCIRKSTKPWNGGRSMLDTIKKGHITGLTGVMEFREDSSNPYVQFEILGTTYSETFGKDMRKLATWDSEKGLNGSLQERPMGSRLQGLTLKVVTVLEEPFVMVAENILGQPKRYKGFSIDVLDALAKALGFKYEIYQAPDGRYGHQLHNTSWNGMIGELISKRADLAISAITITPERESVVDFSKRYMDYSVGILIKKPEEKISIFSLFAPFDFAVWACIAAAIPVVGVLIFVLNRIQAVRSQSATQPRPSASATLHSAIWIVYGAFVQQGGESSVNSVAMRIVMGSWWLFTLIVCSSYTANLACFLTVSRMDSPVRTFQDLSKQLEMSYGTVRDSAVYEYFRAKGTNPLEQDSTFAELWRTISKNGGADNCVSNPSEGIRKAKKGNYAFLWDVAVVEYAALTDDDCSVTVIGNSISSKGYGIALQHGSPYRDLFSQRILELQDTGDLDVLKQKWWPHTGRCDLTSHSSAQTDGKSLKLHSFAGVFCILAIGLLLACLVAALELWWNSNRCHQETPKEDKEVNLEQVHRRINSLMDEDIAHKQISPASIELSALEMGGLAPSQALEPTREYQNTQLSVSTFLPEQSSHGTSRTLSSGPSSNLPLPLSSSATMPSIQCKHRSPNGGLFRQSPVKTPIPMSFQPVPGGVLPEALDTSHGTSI

[7] = test system: DioGluD; experiment: Two-electrode voltage clamp, ligand-gated currents in oocytes; format: cell-based, Diopisthoporus longitubus; conditions: wild-type
[8] = test system: V806R mutant AcaGluD; experiment: Two-electrode voltage clamp, ligand-gated currents in mutant-expressing oocytes
Excerpt: as §2

[9] = test system: K782N mutant AcaGluD; experiment: as above
Excerpt: as §2

[10] = test system: M805Q mutant AcaGluD; experiment: as above
Excerpt: as §2

[11] = target: T4, RatGluD2^Lc^-9x (Rattus norvegicus, UniProt Q63226, A654T/A686S/D753Q/K694R/N720P/N763K/P806D/Q786M/R787V/Y613F); experiment: Two-electrode voltage clamp, responses to ligands in mutant-expressing oocytes; format: cell-based; conditions: ligands 30 mM; receptor inactive at rest
T4 construct: expressed in transfected cells; host or cells: Xenopus laevis oocytes injected with mRNA
T4 sequence (Q63226 24-1007 Y613F/A654T/A686S/K694R/N720P/D753Q/N763K/Q786M/R787V/P806D): as the sequence (Q63226 24-1007 S544G/Y613F/A654T/A686S/K694R/N720P/D753Q/N763K/Q786M/R787V/P806D) above, with G521S counted along it

Row | SMILES | current response to ligand [1] | relative efficacy [2] | relative efficacy ([3]; WT, relative ligand-gated current amplitude, n = 7) | relative efficacy [4] | maximum GABA-gated current amplitude [5] | inactivation of constitutive current relative to D-serine [6] | ligand-elicited currents [7] | EC50 ([3]; 0 Ca2+, n = 5) | maximum GABA-gated current amplitude ([3]; WT, mutant comparison (Fig. 5B), n = 4) | maximum ligand-gated current amplitude ([3]; in the presence of 1.8 mM Ca2+) | EC50 ([3]; ligand-gated current, 1.8 mM Ca2+ (regular bath solution), n = 5) | maximum ligand-gated current amplitude ([3]; nominally Ca2+-free solutions) | maximum GABA-gated current amplitude [8] | maximum GABA-gated current amplitude [9] | maximum GABA-gated current amplitude [10] | current response to ligand [11] | EC50 ([3]; 0 Ca2+, n = 4) | EC50 ([3]; ligand-gated current, 1.8 mM Ca2+ (regular bath solution))
1 | N[C@H](CO)C(=O)O [D-serine] | showed inward currents | 5 ± 1% | 12 ± 3% | 20 ± 3% | – | – | – | – | – | – | – | – | – | – | – | – | – | –
2 | NCCCC(=O)O [GABA, γ-aminobutyric acid] | – | – | – | – | less than 1 μA | 86 ± 5% | the only ligand that elicited currents | 5 ± 0.6 µM | 8.2 ± 1.1 μA | 6.0 ± 1.0 µA | 13 ± 3 µM | 0.42 ± 0.13 µA | less than 1 μA | less than 1 μA | less than 1 μA | – | – | –
3 | NCC(=O)O [glycine] | showed inward currents | – | – | – | – | – | – | – | – | 0.33 ± 0.01 µA | – | 0.08 ± 0.01 µA | – | – | – | conducted inward currents | 2000 ± 100 µM | 2000 ± 100 µM
